Source: ChEMBL document CHEMBL1201862, “PubChem BioAssay data set” (2004)
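Exposure lasted 48 hours, with cells grown in 96-well plates and compounds tested at five concentrations. GI50 marks 50% less growth.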 The source made the active and inactive calls. Cut-off read from the data, not from the text of the source: active = GI50 up to about 1.1 µM and inactive = higher.

Experiments:
Test in all cases: DTP human tumour cell line panel, 48 h
RXF 631 = tested on: RXF 631
HCC 2998 = tested on: HCC 2998
BT-549 = tested on: BT-549
SK-OV-3 = tested on: SK-OV-3
HT-29 = tested on: HT-29
MDA-N = tested on: MDA-N
DLD-1 = tested on: DLD-1
UACC-257 = tested on: UACC-257
MCF7 = tested on: MCF7
NCI-H522 = tested on: NCI-H522
PC-3 = tested on: PC-3
SF-295 = tested on: SF-295
UACC-62 = tested on: UACC-62
SR = tested on: SR
SK-MEL-5 = tested on: SK-MEL-5
SN12C = tested on: SN12C
OVCAR-3 = tested on: OVCAR-3
786-0 = tested on: 786-0
SF-268 = tested on: SF-268
HOP-18 = tested on: HOP-18
LXFL 529 = tested on: LXFL 529
KM-20L2 = tested on: KM-20L2
T47D = tested on: T47D
M14 = tested on: M14
MDA-MB-231 = tested on: MDA-MB-231
HOP-62 = tested on: HOP-62
Malme-3M = tested on: Malme-3M
OVCAR-4 = tested on: OVCAR-4
EKVX = tested on: EKVX
SNB-75 = tested on: SNB-75
SNB-78 = tested on: SNB-78
CCRF-CEM = tested on: CCRF-CEM
NCI/ADR-RES = tested on: NCI/ADR-RES
DU-145 = tested on: DU-145
OVCAR-5 = tested on: OVCAR-5
HOP-92 = tested on: HOP-92
COLO 205 = tested on: COLO 205
M19-MEL = tested on: M19-MEL
HL-60 = tested on: HL-60
SK-MEL-28 = tested on: SK-MEL-28
IGROV-1 = tested on: IGROV-1
CAKI-1 = tested on: CAKI-1
ACHN = tested on: ACHN
NCI-H226 = tested on: NCI-H226
SW-620 = tested on: SW-620
XF498 = tested on: XF498
HCT-15 = tested on: HCT-15
A498 = tested on: A498
DMS-273 = tested on: DMS-273
A549 = tested on: A549
MOLT-4 = tested on: MOLT-4
SF-539 = tested on: SF-539
HCT-116 = tested on: HCT-116
SK-MEL-2 = tested on: SK-MEL-2
U-251 = tested on: U-251
K562 = tested on: K562
NCI-H460 = tested on: NCI-H460
OVCAR-8 = tested on: OVCAR-8
DMS-114 = tested on: DMS-114
RPMI-8226 = tested on: RPMI-8226
UO-31 = tested on: UO-31
TK-10 = tested on: TK-10
RXF 393 = tested on: RXF 393
NCI-H23 = tested on: NCI-H23
KM12 = tested on: KM12

Measured: GI50

COc1cccc2c1C(=O)c1c(O)c3c(c(O)c1C2=O)C[C@@](O)(C(=O)CO)C[C@@H]3OC1CC(N)CC(C)O1 (some centres undefined)
active: RXF 631 0.0301 µM | HCC 2998 0.0706 µM | BT-549 0.0283 µM | SK-OV-3 0.0521 µM | HT-29 0.035 µM | MDA-N 0.0955 µM | DLD-1 0.092 µM | UACC-257 0.051 µM | MCF7 0.024 µM | NCI-H522 0.038 µM | PC-3 0.027 µM | SF-295 0.0239 µM | UACC-62 0.0254 µM | SR 0.00266 µM | SK-MEL-5 0.0371 µM | SN12C 0.0299 µM | OVCAR-3 0.0547 µM | 786-0 0.0247 µM | SF-268 0.0451 µM | HOP-18 0.0348 µM | LXFL 529 0.0462 µM | KM-20L2 0.0695 µM | T47D 0.0233 µM | M14 0.0803 µM | MDA-MB-231 0.0612 µM | HOP-62 0.0221 µM | Malme-3M 0.0284 µM | OVCAR-4 0.046 µM | EKVX 0.0847 µM | SNB-75 0.0402 µM | SNB-78 0.128 µM | CCRF-CEM 0.0267 µM | DU-145 0.0267 µM | OVCAR-5 0.074 µM | HOP-92 0.0416 µM | COLO 205 0.042 µM | M19-MEL 0.0314 µM
inactive: NCI/ADR-RES 3.67 µM

COC(=O)C1=C2CCC(=O)[C@@]2(C)C(OC(C)=O)C=CC1 (some centres undefined)
29.5 µM: HCT-15
inactive: HL-60 29.5 µM | RXF 631 20.5 µM | SK-MEL-28 > 100 µM | IGROV-1 > 100 µM | HCC 2998 > 100 µM | CAKI-1 > 100 µM | SK-OV-3 > 100 µM | HT-29 > 100 µM | ACHN > 100 µM | DLD-1 41.6 µM | UACC-257 40.5 µM | NCI-H226 > 100 µM | SW-620 36.4 µM | SF-295 37.1 µM | XF498 36.3 µM | UACC-62 76.6 µM | A498 > 100 µM | SK-MEL-5 > 100 µM | SN12C > 100 µM | OVCAR-3 53.6 µM | 786-0 > 100 µM | DMS-273 36.6 µM | A549 > 100 µM | MOLT-4 35.9 µM | SF-539 49.3 µM | LXFL 529 36.8 µM | KM-20L2 > 100 µM | M14 88.9 µM | HCT-116 24.5 µM | SK-MEL-2 71.6 µM | U-251 59.6 µM | HOP-62 > 100 µM | K562 30.8 µM | Malme-3M > 100 µM | NCI-H460 > 100 µM | OVCAR-4 > 100 µM | OVCAR-8 43 µM | EKVX > 100 µM | SNB-75 56.8 µM | DMS-114 32.7 µM | SNB-78 57 µM | CCRF-CEM 22.9 µM | RPMI-8226 34.6 µM | UO-31 > 100 µM | TK-10 > 100 µM | OVCAR-5 > 100 µM | RXF 393 > 100 µM | NCI-H23 76.9 µM | M19-MEL > 100 µM | KM12 > 100 µM
